Test results from patent US7026347B2, “Porphyrin-polyamine conjugates for cancer therapy” (CellGate, Inc., priority 2002, dated 2006).

Tests used:
Assay type in all cases: cell-based
[1] = test system: DuPro human prostate tumor cells; assay: MTT assay, human prostate tumor cell growth, DuPro; conditions: 144 h, MTT six days after drug treatment, read-out: ID50 (μM) values for Human prostate tumor Cell Lines DuPro
Experimental: (§1) A conventional MTT assay was used to evaluate percent cell survival. Exponentially growing monolayer cells were plated in 96-well plates at a density of 500 cells per well and allowed to grow for 24 hours. Serial dilutions of the drugs were added to the wells. Six days after drug treatment, 25 μl of MTT solution (5 mg/ml) was added to each well and incubated for 4 hours at 37° C. Then 100 μl of lysis buffer (20% sodium dodecyl sulfate, 50% DMF, and 0.8% acetic acid, pH 4.7) was added to each well and incubated for an additional 22 hours. A microplate reader (“EMAX”-brand, Molecular Devices, Sunnyvale, Calif.) set at 570 nm was used to determine the optical density of the cultures. Results are expressed as a ratio of the optical density in drug-treated wells to the optical density in wells treated with vehicle only. FIGS. 1–13 also indicate the effects of the compounds on various cell lines.

[2] = test system: PC-3 human prostate tumor cells; assay: MTT assay, human prostate tumor cell growth, PC-3; conditions: 144 h, PC-3 cells, MTT six days after drug treatment, read-out: ID50 (μM) values for Human prostate tumor Cell Lines PC-3
Experimental: as §1

[3] = test system: Tsu-pr1 human prostate tumor cells; assay: MTT assay, human prostate tumor cell growth, Tsu-pr1; conditions: 144 h, MTT six days after drug treatment, read-out: ID50 (μM) values for Human prostate tumor Cell Lines Tsu-pr1
Experimental: as §1

[4] = test system: Tsu-pr1-ADR human prostate tumor cells; assay: MTT assay, human prostate tumor cell growth, Tsu-pr1-ADR; conditions: 144 h, MTT six days after drug treatment, read-out: ID50 (μM) values for Human prostate tumor Cell Lines Tsu-pr1-ADR
Experimental: as §1

[5] = test system: BxPC-3 human pancreatic cancer cells; assay: MTT assay, human pancreatic cancer cell growth, BxPC-3; conditions: 144 h, BxPC-3 cells, MTT six days after drug treatment, read-out: ID50(μM) values for Human Pancreatic Cancer Cell Lines BxPC-3
Experimental: as §1

[6] = test system: Panc-1 human pancreatic cancer cells; assay: MTT assay, human pancreatic cancer cell growth, Panc-1; conditions: 144 h, Panc-1 cells, MTT six days after drug treatment, read-out: ID50(μM) values for Human Pancreatic Cancer Cell Lines Panc-1
Experimental: as §1

[7] = test system: Human Brain Tumor Cells U251MG NCI; assay: MTT assay, human brain tumor cell growth, U251MG NCI; conditions: U-251, 144 h, MTT six days after drug treatment, read-out: ID50(μM) values for Human Brain Tumor Cells U251MG NCI
Experimental: as §1

IC50 [1] [µM] | IC50 [2] [µM] | IC50 [3] [µM] | IC50 [4] [µM] | IC50 [5] [µM] | IC50 [6] [µM] | Compound | IC50 [7] [µM]
1.9 | 1.7 | 1.87 | 12.6 | 5.92 | 12.5 | CCCCCCCCCCCCCC1CCN(CCCNC(=O)CCC2=C(C)c3cc4[nH]c(cc5nc(cc6[nH]c(cc2n3)c(CCC(=O)NCCCN2CCCN(C)CCCCN(C)CCCN(C)C(CCCCCCCCCCCCC)CC2)c6C)C(CC)=C5C)c(CC)c4C)CCCN(C)CCCCN(C)CCCN1C (stereo not drawn) [SL-11237] | 2.3
3.6 | 2.8 | – | – | 6.87 | 6.38 | CCNCCCCNCC1CC1CNCCCCN(CC)C(=O)CCC1=C(C)c2cc3[nH]c(cc4nc(cc5[nH]c(cc1n2)c(CCC(=O)N(CC)CCCCNCC1CC1CNCCCCNCC)c5C)C(CC)=C4C)c(CC)c3C (stereo not drawn) [SL-11217] | 5.65
